Source: patent EP4692090A1 (Shanghai Fosun Pharmaceutical (Group) Co., Ltd., priority 2023, dated 2024)
Like-named read-outs stand apart in the source and are kept apart here.

Tests used:
ATR kinase = target: T1, ATR kinase (Homo sapiens, UniProt Q13535); experiment: Inhibitory effect on ATR kinase activity (Caliper mobility shift, FAM-labeled RAD17 peptide substrate); format: biochemical
T1 construct: purchased Eurofins 14-953
Method in brief: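 Caliper mobility-shift assay with 1 nM ATR, FAM-labeled RAD17 peptide […] and 5 mM ATP in HEPES pH 7.5 with 10 mM MnCl2, run 3 h at 28 °C and stopped with EDTA. Compounds were tested in 10-point 3-fold dilutions from 1 µM. IC50 was fitted from % inhibition of substrate conversion versus blank control.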

LoVo cells = experiment: LoVo cell proliferation assay (CellTiter-Glo); format: cell-based; details: maximum concentration 10 µM, 9 concentrations
Method in brief: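 LoVo cells, 2,000 per well, were treated after overnight attachment with 9-point 3-fold dilutions from 10 µM for 5 days at 37 °C. Viability was read by CellTiter-Glo luminescence. Inhibition % was taken relative to DMSO control, and IC50 came from the concentration–inhibition curve.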

[1] = 1 nM ATR kinase (Eurofins), 28°C for 3 hours, maximum concentration 1 µM, 10 concentrations, read-out: ATR kinase IC50
[2] = LoVo cells, 2,000 cells per well, 5 days incubation, CellTiter-Glo, read-out: LoVo IC50
[3] = Homo sapiens, LoVo, 120 h, LoVo cells, 2,000 cells per well, 5 days incubation, CellTiter-Glo, read-out: LoVo IC50
[4] = read-out: ATR kinase IC50, 1 nM ATR kinase (Eurofins), 28°C for 3 hours, maximum concentration 1 µM, 10 concentrations
[5] = Homo sapiens, LoVo, 120 h, read-out: LoVo IC50 (nM), LoVo cells, 2,000 cells per well, 5 days incubation, CellTiter-Glo

T1 sequence (Q13535 whole entry): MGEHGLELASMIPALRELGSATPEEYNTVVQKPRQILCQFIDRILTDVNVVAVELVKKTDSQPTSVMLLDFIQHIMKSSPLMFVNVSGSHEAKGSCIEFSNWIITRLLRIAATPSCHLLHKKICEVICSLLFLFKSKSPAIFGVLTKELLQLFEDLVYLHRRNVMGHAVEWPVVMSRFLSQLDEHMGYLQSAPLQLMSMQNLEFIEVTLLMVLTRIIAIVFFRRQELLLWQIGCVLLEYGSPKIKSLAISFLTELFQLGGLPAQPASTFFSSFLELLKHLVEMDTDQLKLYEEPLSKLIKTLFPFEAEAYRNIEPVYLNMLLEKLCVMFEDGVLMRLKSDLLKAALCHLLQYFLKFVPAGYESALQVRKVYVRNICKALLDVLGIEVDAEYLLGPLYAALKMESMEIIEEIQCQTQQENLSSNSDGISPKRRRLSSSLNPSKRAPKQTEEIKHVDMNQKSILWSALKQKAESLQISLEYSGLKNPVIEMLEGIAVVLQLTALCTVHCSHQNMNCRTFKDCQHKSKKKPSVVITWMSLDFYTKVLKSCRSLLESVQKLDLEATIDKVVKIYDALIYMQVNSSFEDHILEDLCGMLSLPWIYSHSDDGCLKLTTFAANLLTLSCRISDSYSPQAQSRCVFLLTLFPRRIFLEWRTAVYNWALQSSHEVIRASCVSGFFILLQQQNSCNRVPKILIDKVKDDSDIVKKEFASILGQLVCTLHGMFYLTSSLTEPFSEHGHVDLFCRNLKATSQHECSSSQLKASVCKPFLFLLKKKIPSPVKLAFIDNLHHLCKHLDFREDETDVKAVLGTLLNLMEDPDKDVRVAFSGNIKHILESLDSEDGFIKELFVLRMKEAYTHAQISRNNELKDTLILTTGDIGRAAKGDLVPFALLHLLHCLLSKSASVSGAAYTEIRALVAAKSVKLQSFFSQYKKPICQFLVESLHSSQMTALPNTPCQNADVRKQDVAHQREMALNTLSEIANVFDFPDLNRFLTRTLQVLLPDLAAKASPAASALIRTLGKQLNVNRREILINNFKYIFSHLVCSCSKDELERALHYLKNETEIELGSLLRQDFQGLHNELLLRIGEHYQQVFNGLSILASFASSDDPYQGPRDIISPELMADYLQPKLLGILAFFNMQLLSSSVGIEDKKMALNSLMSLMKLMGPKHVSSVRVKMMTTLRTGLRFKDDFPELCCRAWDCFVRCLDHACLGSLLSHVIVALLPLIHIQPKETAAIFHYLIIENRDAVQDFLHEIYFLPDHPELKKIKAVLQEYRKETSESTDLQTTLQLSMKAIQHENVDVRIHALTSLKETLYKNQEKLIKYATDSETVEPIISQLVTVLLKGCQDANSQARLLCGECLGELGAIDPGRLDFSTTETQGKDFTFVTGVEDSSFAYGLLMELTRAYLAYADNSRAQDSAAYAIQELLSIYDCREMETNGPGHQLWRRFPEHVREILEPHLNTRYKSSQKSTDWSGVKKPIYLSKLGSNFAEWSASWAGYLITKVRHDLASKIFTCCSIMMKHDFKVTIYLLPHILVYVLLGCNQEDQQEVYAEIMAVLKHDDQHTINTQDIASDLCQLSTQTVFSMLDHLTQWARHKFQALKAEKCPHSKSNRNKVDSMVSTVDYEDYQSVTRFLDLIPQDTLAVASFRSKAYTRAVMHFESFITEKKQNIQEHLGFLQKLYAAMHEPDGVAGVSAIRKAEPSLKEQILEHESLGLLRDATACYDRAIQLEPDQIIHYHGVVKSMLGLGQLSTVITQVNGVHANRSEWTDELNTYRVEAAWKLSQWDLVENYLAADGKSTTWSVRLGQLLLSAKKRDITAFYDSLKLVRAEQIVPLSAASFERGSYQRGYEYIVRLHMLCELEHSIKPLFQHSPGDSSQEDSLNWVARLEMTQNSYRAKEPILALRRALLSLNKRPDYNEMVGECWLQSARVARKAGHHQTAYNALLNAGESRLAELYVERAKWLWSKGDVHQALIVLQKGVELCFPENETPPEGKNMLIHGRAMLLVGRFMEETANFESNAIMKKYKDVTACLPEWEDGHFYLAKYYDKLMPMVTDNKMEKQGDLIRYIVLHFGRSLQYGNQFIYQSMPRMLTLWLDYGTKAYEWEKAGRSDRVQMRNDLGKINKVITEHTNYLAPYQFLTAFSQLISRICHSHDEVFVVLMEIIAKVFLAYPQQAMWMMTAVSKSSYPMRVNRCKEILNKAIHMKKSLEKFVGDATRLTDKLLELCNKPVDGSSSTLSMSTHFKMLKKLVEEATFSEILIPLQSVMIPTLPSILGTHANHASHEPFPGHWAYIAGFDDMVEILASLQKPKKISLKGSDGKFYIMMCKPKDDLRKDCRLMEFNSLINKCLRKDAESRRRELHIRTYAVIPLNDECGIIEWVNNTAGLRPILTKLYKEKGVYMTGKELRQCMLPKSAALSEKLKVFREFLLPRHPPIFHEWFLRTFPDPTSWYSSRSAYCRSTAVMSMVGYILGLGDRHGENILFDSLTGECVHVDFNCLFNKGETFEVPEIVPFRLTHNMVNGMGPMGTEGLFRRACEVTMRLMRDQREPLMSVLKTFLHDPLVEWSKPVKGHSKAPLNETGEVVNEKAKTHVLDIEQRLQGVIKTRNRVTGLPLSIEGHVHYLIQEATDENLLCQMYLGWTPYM
T1 sequence (Q8WXE1 whole entry partner): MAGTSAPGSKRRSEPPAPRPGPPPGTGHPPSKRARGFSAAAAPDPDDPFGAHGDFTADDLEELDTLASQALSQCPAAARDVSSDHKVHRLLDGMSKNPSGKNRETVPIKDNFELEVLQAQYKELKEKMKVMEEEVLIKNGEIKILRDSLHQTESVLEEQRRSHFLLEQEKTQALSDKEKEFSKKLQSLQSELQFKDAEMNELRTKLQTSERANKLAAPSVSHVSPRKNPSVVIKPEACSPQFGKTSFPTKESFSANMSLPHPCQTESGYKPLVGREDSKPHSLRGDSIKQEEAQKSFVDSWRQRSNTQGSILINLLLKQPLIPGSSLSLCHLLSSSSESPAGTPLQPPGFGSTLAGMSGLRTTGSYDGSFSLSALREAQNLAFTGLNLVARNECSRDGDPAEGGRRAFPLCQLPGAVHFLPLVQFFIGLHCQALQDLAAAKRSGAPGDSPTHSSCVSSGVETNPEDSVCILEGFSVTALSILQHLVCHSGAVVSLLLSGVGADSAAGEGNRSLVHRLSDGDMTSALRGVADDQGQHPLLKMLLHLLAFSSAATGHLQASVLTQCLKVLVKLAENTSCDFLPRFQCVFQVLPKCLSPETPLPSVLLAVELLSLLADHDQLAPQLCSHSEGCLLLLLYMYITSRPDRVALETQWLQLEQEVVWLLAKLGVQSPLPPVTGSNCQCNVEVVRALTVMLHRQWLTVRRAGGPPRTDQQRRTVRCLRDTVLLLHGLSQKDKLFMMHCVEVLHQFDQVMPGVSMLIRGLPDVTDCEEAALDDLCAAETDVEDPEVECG

| IC50 (ATR kinase; [1]) [nM] | IC50 (LoVo cells; [2]) [nM] | IC50 (LoVo cells; [3]) [nM] | SMILES | IC50 (ATR kinase; [4]) [nM] | IC50 (LoVo cells; [5]) [nM] |
| --- | --- | --- | --- | --- | --- |
| 10 to 100 | < 100 | – | CC1c2cc(N3CCOC[C@H]3C)nc3c2c(nn3-c2cc[nH]n2)CCN1C1COC1 (single isomer, unassigned) [Compound 32B] | – | – |
| 10 to 100 | – | < 100 | CC(C)C1c2cc(N3CCOC[C@H]3C)nc3c2c(nn3-c2cc[nH]n2)CCN1C1COC1 (stereo partly drawn) [Compound 136, (3R)-4-(6-isopropyl-7-(oxetan-3-yl)-2-(1H-pyrazol-3-yl)-6,7,8,9-tetrahydro-2H-1,2,3,7-tetraazabenzo[cd]azulen-4-yl)-3-methylmorpholine] | – | – |
| < 10 | – | < 100 | C=CS(=O)(=O)N1CCc2nn(-c3cc[nH]n3)c3nc(N4CCOC[C@H]4C)cc(c23)C1C (stereo partly drawn) [Compound 50, (3R)-3-methyl-4-(6-methyl-2-(1H-pyrazol-3-yl)-7-(vinylsulfonyl)-6,7,8,9-tetrahydro-2H-1,2,3,7-tetraazabenzo[cd]azulen-4-yl)morpholine] | – | – |
| < 10 | < 100 | – | CC1c2cc(N3CCOC[C@H]3C)nc3c2c(nn3-c2cc[nH]n2)CCN1C1CC1 (single isomer, unassigned) [Compound 31B] | – | – |
| 10 to 100 | – | 100 to 1000 | CC1Cn2nc(-c3cc[nH]n3)c3nc(N4CCOC[C@H]4C)cc(c32)N(C(C)C)C1=O (stereo partly drawn) [Compound 119, 6-isopropyl-8-methyl-4-((R)-3-methylmorpholino)-2-(1H-pyrazol-3-yl)-8,9-dihydro-1,3,6,9a-tetraazabenzo[cd]azulene-7(6H)-one] | – | – |
| 10 to 100 | – | 100 to 1000 | CC1c2cc(N3CCOC[C@H]3C)nc3c(-c4cc[nH]n4)nn(c23)CCN1C1COC1 (stereo partly drawn) [Compound 57, (3R)-3-methyl-4-(6-methyl-7-(oxetan-3-yl)-2-(1H-pyrazol-3-yl)-6,7,8,9-tetrahydro-1,3,7,9a-tetraazabenzo[cd]azulen-4-yl)morpholine] | – | – |
| – | – | – | C[C@@H]1COCCN1c1cc2c3c(n1)c(-c1cc[nH]n1)nn3CCC(=O)N2C12CC(C1)C2 [Compound 110, (R)-6-(bicyclo[1.1.1]pentan-1-yl)-4-(3-methylmorpholinyl)-2-(1H-pyrazol-3-yl)-8,9-dihydro-1,3,6,9a-tetraazabenzo[cd]azulene-7(6H)-one] | < 10 | < 100 |
| – | – | – | CC1c2cc(N3CCOC[C@H]3C)nc3c2c(nn3-c2cc[nH]n2)CCN1C(=O)C1(C#N)CC1 (single isomer, unassigned) [Compound 40A] | < 10 | 100 to 1000 |
| 10 to 100 | – | 100 to 1000 | CC1CC(C(=O)N2CCc3nn(-c4cc[nH]n4)c4nc(N5CCOC[C@H]5C)cc(c34)C2)C1 (stereo partly drawn) [Compound 15, (R)-(3-methylcyclobutyl)(4-(3-methylmorpholino)-2-(1H-pyrazol-3-yl)-2,6,8,9-tetrahydro-7H-1,2,3,7-tetraazabenzo[cd]azulene-7-yl)methanone] | – | – |
| 10 to 100 | – | 100 to 1000 | C[C@@H]1COCCN1c1cc2c3c(n1)c(-c1cc[nH]n1)nn3CCC(=O)N2C1CCOC1 (stereo partly drawn) [Compound 90, 4-((R)-3-methylmorpholino)-2-(1H-pyrazol-3-yl)-6-(tetrahydrofuran-3-yl)-8,9-dihydro-1,3,6,9a-tetraazabenzo[cd]azulene-7(6H)-one] | – | – |
| < 10 | – | < 100 | CC1c2cc(N3CCOC[C@H]3C)nc3c2c(nn3-c2cc[nH]n2)CCN1S(=O)(=O)C1CC1F (single isomer, unassigned) [Compound 151A] | – | – |
| < 10 | < 100 | – | CC(C)N1CCc2nn(-c3cc[nH]n3)c3nc(N4CCOC[C@H]4C)cc(c23)C1C (single isomer, unassigned) [Compound 36B] | – | – |
| – | – | – | C[C@@H]1COCCN1c1cc2c3c(n1)c(-c1cc[nH]n1)nn3CCC(=O)N2C1(C)CC1 [Compound 88, (R)-6-(1-methylcyclopropyl)-4-(3-methylmorpholinyl)-2-(1H-pyrazol-3-yl)-8,9-dihydro-1,3,6,9a-tetraazabenzo[cd]azulene-7(6H)-one] | < 10 | < 100 |
| 10 to 100 | – | 100 to 1000 | CC1COCC1N1CCc2nn(-c3cc[nH]n3)c3nc(N4CCOC[C@H]4C)cc(c23)C1 (stereo partly drawn) [Compound 12, (3R)-3-methyl-4-(7-(4-methyltetrahydrofuran-3-yl)-2-(1H-pyrazol-3-yl)-6,7,8,9-tetrahydro-2H-1 ,2,3,7-tetraazabenzo[cd]azulen-4-yl)morpholine] | – | – |
| 10 to 100 | – | 100 to 1000 | C[C@@H]1COCCN1c1cc2c3c(nn(-c4cc[nH]n4)c3n1)CCN(CC(F)(F)F)C2 [Compound 14, (R)-4-(2-(1H-pyrazol-3-yl)-7-(2,2,2-trifluoroethyl)-6,7,8,9-tetrahydro-2H-1,2,3,7-tetraazabenzo[cd]azulen-4-yl)-3-methylmorpholine] | – | – |
| < 10 | – | < 100 | CCN1CCc2nn(-c3cc[nH]n3)c3nc(N4CCOC[C@H]4C)cc(c23)C1C (single isomer, unassigned) [Compound 41A] | – | – |
| < 10 | – | < 100 | C[C@@H]1COCCN1c1cc2c3c(nn(-c4cc[nH]n4)c3n1)CCN(C)C2(C)C [Compound 149, (R)-3-methyl-4-(6,6,7-trimethyl-2-(1H-pyrazol-3-yl)-6,7,8,9-tetrahydro-2H-1,2,3,7-tetraazabenzo[cd]azulen-4-yl)morpholine] | – | – |
| < 10 | < 100 | – | CCC1c2cc(N3CCOC[C@H]3C)nc3c2c(nn3-c2cc[nH]n2)CCN1S(C)(=O)=O (single isomer, unassigned) [Compound 144B] | – | – |
| 10 to 100 | – | 100 to 1000 | CC(C)N1CCc2nn(-c3cc[nH]n3)c3nc(N4CCOC[C@H]4C)cc(c23)C1 [Compound 2] | – | – |
| – | – | – | C[C@@H]1COCCN1c1cc2c3c(nn(-c4cc[nH]n4)c3n1)CCN(C13CC(C1)C3)C2=O [Compound 139, (R)-7-(bicyclo[1.1.1]pentan-1-yl)-4-(3-methylmorpholinyl)-2-(1H-pyrazol-3-yl)-2,7,8,9-tetrahydro-6H-1,2,3,7-tetraazabenzo[cd]azulene-6-one] | < 10 | 100 to 1000 |
| 10 to 100 | – | 100 to 1000 | CC1c2cc(N3CCOC[C@H]3C)nc3c2c(nn3-c2cc[nH]n2)CCN1C1COC1 (single isomer, unassigned) [Compound 32A] | – | – |
| – | – | – | CC1c2cc(N3CCOC[C@H]3C)nc3c2c(nn3-c2cc[nH]n2)CCN1S(C)(=O)=NC1CC1 (stereo partly drawn) [Compound 153, (3R)-4-(7-(N-cyclopropyl-S-methylsulfonylimino)-6-methyl-2-(1H-pyrazol-3-yl)-6,7,8,9-tetrahydro-2H-1,2,3,7-tetraazabenzo[cd]azulen-4-yl)-3-methylmorpholine] | 10 to 100 | 100 to 1000 |
| < 10 | < 100 | – | CC1c2cc(N3CCOC[C@H]3C)nc3c2c(nn3-c2cc[nH]n2)CCN1S(C)(=O)=O (single isomer, unassigned) [Compound 39A] | – | – |
| – | – | – | C[C@@H]1COCCN1c1cc2c3c(n1)c(-c1cc[nH]n1)nn3CCC(=O)N2CC1(C#N)CC1 [Compound 116, (R)-1-((4-(3-methylmorpholinyl)-7-oxo-2-(1H-pyrazol-3-yl)-8,9-dihydro-1,3,6,9a-tetraazabenzo[cd]azulene-6(7H)-yl)methyl)cyclopropane-1-carbonitrile] | 10 to 100 | 100 to 1000 |
| – | – | – | CC(C)N1C(=O)CCn2nc(-c3cc[nH]n3)c3nc(N4CCOC[C@H]4C)cc1c32 [Compound 81, (R)-6-isopropyl-4-(3-methylmorpholinyl)-2-(1H-pyrazol-3-yl)-8,9-dihydro-1,3,6,9a-tetraazabenzo[cd]azulene-7(6H)-one] | < 10 | < 100 |
